Measurements taken from US20070287848A1, “Silicon Compound Containi-Electron Conjugated-System Molecule and Process for Producing the Same” (priority 2004, published 2007).
Each block holds one compound with its values, some of them ahead of it.

Key:
[1] = Solubility in THF; assay type: physicochemical; conditions: in 1 ml of THF
[2] = Solubility in toluene; assay type: physicochemical; conditions: in 1 ml of toluene; for solubility relative to that of Th4-SiCl3: ratio to Th4-SiCl3

SMILES: CCCCCCCCCCCCCCCCCCc1ccc(-c2ccc(-c3ccc([Si](Cl)(Cl)Cl)cc3)cc2)cc1 [C18-P3-SiCl3]
solubility relative to that of P3-SiCl3 ([1]; ratio to P3-SiCl3): about 2.8 times

SMILES: CCCCCCCCCCCCCCCCCCc1ccc(-c2ccc(-c3ccc(-c4ccc([Si](OCC)(OCC)OCC)s4)s3)s2)s1 [C18-Th4-Si(OC2H5)3]
solubility relative to that of Th4-SiCl3 [2]: about 10 times

SMILES: CCCCCCCCCCCCCCCCCCc1ccc(-c2ccc(-c3ccc(-c4ccc([Si](OC)(OC)OC)s4)s3)s2)s1 [C18-Th4-Si(OCH3)3]
solubility relative to that of Th4-SiCl3 [2]: about 9.5 times

solubility [1]: about 2.0 mg/ml
SMILES: Cl[Si](Cl)(Cl)c1ccc(-c2ccc(-c3ccccc3)cc2)cc1 [P3-SiCl3, reference compound]

solubility [2]: about 1.0 mg/ml
SMILES: Cl[Si](Cl)(Cl)c1ccc(-c2ccc(-c3ccc(-c4cccs4)s3)s2)s1 [Th4-SiCl3, reference compound]
